± gives the expanded uncertainty stated by the source.
Legend:
[1] = refractive index (Na D-line) (dimensionless); conditions: 101.3 kPa, Liquid, Standard Abbe refractometry
[2] = 101.3 kPa, Liquid, Oscillating disk viscometry

refractive index ([1]; 293.15 K)	refractive index ([1]; 298.15 K)	refractive index ([1]; 303.15 K)	refractive index ([1]; 308.15 K)	refractive index ([1]; 313.15 K)	refractive index ([1]; 318.15 K)	refractive index ([1]; 323.15 K)	refractive index ([1]; 328.15 K)	refractive index ([1]; 333.15 K)	viscosity ([2]; 293.15 K) [mPa·s]	viscosity ([2]; 298.15 K) [mPa·s]	viscosity ([2]; 303.15 K) [mPa·s]	viscosity ([2]; 308.15 K) [mPa·s]	viscosity ([2]; 313.15 K) [mPa·s]	viscosity ([2]; 318.15 K) [mPa·s]	viscosity ([2]; 323.15 K) [mPa·s]	viscosity ([2]; 328.15 K) [mPa·s]	viscosity ([2]; 333.15 K) [mPa·s]	SMILES
1.4386 ± 0.0022	1.437 ± 0.0022	1.4352 ± 0.0022	1.4331 ± 0.0022	1.431 ± 0.0022	1.4288 ± 0.0022	1.4265 ± 0.0023	1.4242 ± 0.0023	1.4218 ± 0.0023	13.12 ± 2.9	10.28 ± 2.3	8.42 ± 1.8	6.78 ± 1.5	5.54 ± 1.2	4.61 ± 0.99	3.82 ± 0.82	3.13 ± 0.69	2.42 ± 0.56	CNCCO [2-(methylamino)ethanol]
1.4856 ± 0.0021	1.4842 ± 0.0021	1.4827 ± 0.0022	1.481 ± 0.0022	1.4792 ± 0.0022	1.4772 ± 0.0022	1.475 ± 0.002	1.4727 ± 0.0023	1.4702 ± 0.0023	153.62 ± 41	99.27 ± 27	71.31 ± 17	52.94 ± 13	37.67 ± 9.1	28.23 ± 6.5	21.55 ± 4.9	16.43 ± 3.8	12.74 ± 3	NCCNCCO [N-(2-aminoethyl)ethanolamine]
